IC50 data for 19 compounds are collected here from ChEMBL document CHEMBL1135619, “Cyclosporins: structure-activity relationships for the inhibition of the human MDR1 P-glycoprotein ABC transporter” (J Med Chem, 2002).

Where a SMILES comes first, the peptide text is derived from it. [ ]: non-standard residue; d: D form. NMeBmt(8-OH) = CN[C@H](C(=O)O)[C@H](O)[C@H](C)C/C=C/CO; MeBmt = C/C=C/C[C@@H](C)[C@@H](O)[C@H](NC)C(=O)O; Val(2S-OH) = CC(C)[C@](N)(O)C(=O)O; NMeL = CN[C@@H](CC(C)C)C(=O)O; NMeV = CN[C@H](C(=O)O)C(C)C; Sar = CNCC(=O)O Bounds are passed on as bounds.

The target of the first series is ATP-dependent translocase ABCB1 (Homo sapiens, UniProt P08183). The experiment in a line: (§1) Inhibitory activity against Human MDR1 P-Glycoprotein ABC Transporter using leukemia CEM cells.
Sequence of ATP-dependent translocase ABCB1 (P08183 whole entry): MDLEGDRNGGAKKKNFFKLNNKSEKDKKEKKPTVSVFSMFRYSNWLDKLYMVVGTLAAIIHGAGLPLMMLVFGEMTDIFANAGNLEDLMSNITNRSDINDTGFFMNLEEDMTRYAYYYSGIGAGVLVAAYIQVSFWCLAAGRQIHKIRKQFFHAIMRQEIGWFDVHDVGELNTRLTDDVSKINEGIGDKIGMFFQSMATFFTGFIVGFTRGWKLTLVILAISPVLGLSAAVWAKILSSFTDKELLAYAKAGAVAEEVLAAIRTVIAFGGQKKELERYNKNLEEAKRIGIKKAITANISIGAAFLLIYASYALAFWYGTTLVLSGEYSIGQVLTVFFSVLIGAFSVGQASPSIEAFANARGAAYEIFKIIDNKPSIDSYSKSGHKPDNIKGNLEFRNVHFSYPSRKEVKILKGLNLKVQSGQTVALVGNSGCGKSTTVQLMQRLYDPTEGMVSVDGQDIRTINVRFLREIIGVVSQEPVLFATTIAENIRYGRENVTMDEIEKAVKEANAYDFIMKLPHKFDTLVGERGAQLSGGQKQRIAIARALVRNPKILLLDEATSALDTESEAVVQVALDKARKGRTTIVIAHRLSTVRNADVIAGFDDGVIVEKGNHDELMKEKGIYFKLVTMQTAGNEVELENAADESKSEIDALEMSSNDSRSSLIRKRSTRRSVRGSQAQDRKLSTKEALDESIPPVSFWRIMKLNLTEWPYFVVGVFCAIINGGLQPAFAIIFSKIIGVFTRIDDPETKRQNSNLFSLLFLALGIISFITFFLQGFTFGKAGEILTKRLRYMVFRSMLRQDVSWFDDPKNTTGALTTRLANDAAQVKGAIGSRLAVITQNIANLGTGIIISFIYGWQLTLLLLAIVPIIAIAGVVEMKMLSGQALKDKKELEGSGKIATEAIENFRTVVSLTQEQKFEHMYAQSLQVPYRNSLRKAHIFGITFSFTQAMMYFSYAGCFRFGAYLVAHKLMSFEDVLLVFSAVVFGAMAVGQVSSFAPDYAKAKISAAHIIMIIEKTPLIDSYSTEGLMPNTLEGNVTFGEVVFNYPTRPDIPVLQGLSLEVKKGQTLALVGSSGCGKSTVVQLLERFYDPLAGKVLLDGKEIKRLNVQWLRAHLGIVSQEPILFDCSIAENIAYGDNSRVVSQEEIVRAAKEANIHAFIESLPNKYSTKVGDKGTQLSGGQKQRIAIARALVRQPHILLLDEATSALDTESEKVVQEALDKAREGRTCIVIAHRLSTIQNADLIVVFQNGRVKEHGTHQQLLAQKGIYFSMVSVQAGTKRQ
Settings: not given
For the compound `C/C=C/C[C@@H](C)[C@@H](O)[C@H]1C(=O)N[C@@H](CC)C(=O)N2CCC[C@@H]2C(=O)N(C)[C@@H](CC(C)C)C(=O)N[C@@H](C(C)C)C(=O)N(C)[C@@H](CC(C)C)C(=O)N[C@@H](C)C(=O)N[C@H](C)C(=O)N(C)[C@@H](CC(C)C)C(=O)N(C)[C@@H](CC(C)C)C(=O)N(C)[C@@H](C(C)C)C(=O)N1C`, the half-inhibitory concentration (IC50) came out at 3.5 µM.

In turn, `C/C=C/C[C@@H](C)[C@@H](O)[C@H]1C(=O)N[C@@H](CC)C(=O)N2CCC[C@H]2C(=O)N(C)[C@@H](CC(C)C)C(=O)N[C@@H](C(C)C)C(=O)N(C)[C@@H](CC(C)C)C(=O)N[C@@H](C)C(=O)N[C@H](C)C(=O)N(C)[C@@H](CC(C)C)C(=O)N(C)[C@@H](CC(C)C)C(=O)N(C)[C@@H](C(C)C)C(=O)N1C` showed an IC50 of 5.2 µM. The same measure, in the same setting: with `CC[C@@H]1NC(=O)[C@H](CC2CCCCC2)N(C)C(=O)[C@H](C(C)C)N(C)C(=O)[C@H](CC(C)C)N(C)C(=O)[C@H](CC(C)C)N(C)C(=O)[C@@H](C)NC(=O)[C@H](C)NC(=O)[C@H](CC(C)C)N(C)C(=O)[C@H](C(C)C)NC(=O)[C@H](CC(C)C)N(C)C(=O)CN(C)C1=O` the figure was 8.1 µM; with `C/C=C/C[C@@H](C)C[C@H]1C(=O)N[C@@H](CC)C(=O)N(C)CC(=O)N(C)[C@@H](CC(C)C)C(=O)N[C@@H](C(C)C)C(=O)N(C)[C@@H](CC(C)C)C(=O)N[C@@H](C)C(=O)N[C@H](C)C(=O)N(C)[C@@H](CC(C)C)C(=O)N(C)[C@@H](CC(C)C)C(=O)N(C)[C@@H](C(C)C)C(=O)N1C`, 2.2 µM; with `C/C=C/C[C@@H](C)[C@@H](O)[C@H]1C(=O)N[C@@H]([C@@H](C)O)C(=O)N(C)CC(=O)N[C@@H](C(C)C)C(=O)N[C@@H](C(C)C)C(=O)N(C)[C@@H](CC(C)C)C(=O)N[C@@H](C)C(=O)N[C@H](C)C(=O)N(C)[C@@H](CC(C)C)C(=O)N(C)[C@@H](CC(C)C)C(=O)N(C)[C@@H](C(C)C)C(=O)N1C`, > 100 µM. Turning to `CCCCCC[C@H]1C(=O)N[C@@H](CC)C(=O)N(C)CC(=O)N(C)[C@@H](CC(C)C)C(=O)N[C@@H](C(C)C)C(=O)N(C)[C@@H](CC(C)C)C(=O)N[C@@H](C)C(=O)N[C@H](C)C(=O)N(C)[C@@H](CC(C)C)C(=O)N(C)[C@@H](CC(C)C)C(=O)N(C)[C@@H](C(C)C)C(=O)N1C`, the IC50 was determined as 4 µM.

Consider `C/C=C/C[C@@H](C)[C@@H](O)[C@H]1C(=O)N[C@@H](CC)C(=O)NCC(=O)N(C)[C@@H](CC(C)C)C(=O)N[C@@H](C(C)C)C(=O)N(C)[C@@H](CC(C)C)C(=O)N[C@@H](C)C(=O)N[C@H](CO)C(=O)N(C)[C@@H](CC(C)C)C(=O)N(C)[C@@H](CC(C)C)C(=O)N(C)[C@@H](C(C)C)C(=O)N1C`, for which the IC50 was > 30 µM. For the compound `C/C=C/C[C@@H](C)[C@@H](O)[C@H]1C(=O)N[C@@H]([C@@H](C)O)C(=O)N(C)CC(=O)N(C)[C@@H](CC(C)C)C(=O)N[C@@H](CC(C)C)C(=O)N(C)[C@@H](CC(C)C)C(=O)N[C@@H](C)C(=O)N[C@H](C)C(=O)N(C)[C@@H](CC(C)C)C(=O)N[C@@H](C)C(=O)N(C)[C@@H](C(C)C)C(=O)N1C` (cyclo(A[NMeV][MeBmt]T[Sar][NMeL]L[NMeL]A[dA][NMeL])), inhibition was half-maximal at 56 µM (IC50).

For `C/C=C/C[C@@H](C)[C@@H](O)[C@H]1C(=O)N[C@@H]([C@@H](C)O)C(=O)NCC(=O)N(C)[C@@H](CC(C)C)C(=O)N[C@@H](CC(C)C)C(=O)N(C)[C@@H](CC(C)C)C(=O)N[C@@H](C)C(=O)N[C@](O)(C(C)C)C(=O)N(C)[C@@H](CC(C)C)C(=O)N[C@@H](CC(C)C)C(=O)N(C)[C@@H](C(C)C)C(=O)N1C` (cyclo(A[Val(2S-OH)][NMeL]L[NMeV][MeBmt]TG[NMeL]L[NMeL])), the half-inhibitory concentration (IC50) worked out at 4 µM. The same measure, in the same setting: with `C/C=C/C[C@@H](C)[C@@H](O)[C@H]1C(=O)N[C@@H]([C@@H](C)O)C(=O)N(C)CC(=O)N[C@@H](CC(C)C)C(=O)N[C@@H](CC(C)C)C(=O)N(C)[C@@H](CC(C)C)C(=O)N[C@@H](C)C(=O)N[C@](O)(C(C)C)C(=O)N(C)[C@@H](CC(C)C)C(=O)N[C@@H](CC(C)C)C(=O)N(C)[C@@H](C(C)C)C(=O)N1C` (cyclo(A[Val(2S-OH)][NMeL]L[NMeV][MeBmt]T[Sar]LL[NMeL])) the figure was 4.3 µM. On to `C/C=C/C[C@@H](C)[C@@H](O)[C@H]1C(=O)N[C@@H]([C@@H](C)O)C(=O)N(C)CC(=O)N(C)[C@@H](CC(C)C)C(=O)N[C@@H](CC(C)C)C(=O)N(C)[C@@H](CC(C)C)C(=O)N[C@@H](C)C(=O)N[C@](O)(C(C)C)C(=O)N(C)[C@@H](CC(C)C)C(=O)N[C@@H](CC(C)C)C(=O)N(C)[C@@H](C(C)C)C(=O)N1C` (cyclo(A[Val(2S-OH)][NMeL]L[NMeV][MeBmt]T[Sar][NMeL]L[NMeL])), for which the IC50 stood at 1.6 µM. `C/C=C/C[C@@H](C)[C@@H](O)[C@H]1C(=O)N[C@@H]([C@@H](C)O)C(=O)N(C)CC(=O)N(C)[C@@H](CC(C)C)C(=O)N[C@@H](C(C)C)C(=O)N(C)[C@@H](CC(C)C)C(=O)N[C@@H](C)C(=O)N[C@](O)(C(C)C)C(=O)N(C)[C@@H](CC(C)C)C(=O)N[C@@H](CC(C)C)C(=O)N(C)[C@@H](C(C)C)C(=O)N1C` (cyclo(A[Val(2S-OH)][NMeL]L[NMeV][MeBmt]T[Sar][NMeL]V[NMeL])) displayed a 50% inhibitory concentration (IC50) of 2.1 µM. On the same count and under the same terms, with `C/C=C/C[C@@H](C)[C@@H](O)[C@H]1C(=O)N[C@@H]([C@@H](C)O)C(=O)N(C)CC(=O)N(C)[C@@H](CC(C)C)C(=O)N[C@@H](CC(C)C)C(=O)N(C)[C@@H](CC(C)C)C(=O)N[C@@H](C)C(=O)N[C@H](C)C(=O)N(C)[C@@H](CC(C)C)C(=O)N[C@@H](CC(C)C)C(=O)N(C)[C@@H](C(C)C)C(=O)N1C` (cyclo(A[dA][NMeL]L[NMeV][MeBmt]T[Sar][NMeL]L[NMeL])) the figure was 6 µM. On the same count and under the same terms, with `CC(C)C[C@H]1C(=O)N[C@@H](C(C)C)C(=O)N(C)[C@@H](CC(C)C)C(=O)N[C@@H](C)C(=O)N[C@H](C)C(=O)N(C)[C@@H](CC(C)C)C(=O)N(C)[C@@H](CC(C)C)C(=O)N(C)[C@@H](C(C)C)C(=O)N(C)[C@@H](CC(C)C)C(=O)N[C@@H](C(C)C)C(=O)N(C)CC(=O)N1C` (cyclo(A[dA][NMeL][NMeL][NMeV][NMeL]V[Sar][NMeL]V[NMeL])) the figure was 7 µM.

The target in the next series is MDR1 P-glycoprotein (ABCB1) (Homo sapiens, UniProt P08183). The series is described as §1. As to conditions: human, leukemia CEM cells.
Sequence of MDR1 P-glycoprotein (ABCB1) (P08183 whole entry): as above
`C/C=C/C[C@@H](C)[C@@H](O)C1NC(=O)[C@H](C(C)C)N(C)C(=O)[C@H](CC(C)C)N(C)C(=O)[C@H](CC(C)C)N(C)C(=O)[C@@H](C)NC(=O)[C@H](C)NC(=O)[C@@H](CC(C)C)N(C)C(=O)[C@@H](C(C)C)NC(=O)[C@@H](CC(C)C)N(C)C(=O)CN(C)C(=O)[C@H]([C@@H](C)O)NC1=O` (some centres undefined): the half-inhibitory concentration (IC50) is 17 µM. The same measure, in the same setting: for `CC[C@@H]1NC(=O)[C@H](C2CCCCC2C)N(C)C(=O)[C@H](C(C)C)N(C)C(=O)[C@H](CC(C)C)N(C)C(=O)[C@H](CC(C)C)N(C)C(=O)[C@@H](C)NC(=O)[C@H](C)NC(=O)[C@H](CC(C)C)N(C)C(=O)[C@H](C(C)C)NC(=O)[C@H](CC(C)C)N(C)C(=O)CN(C)C1=O` (some centres undefined) the value was 13.1 µM. Regarding `CC/C=C/C[C@@H](C)[C@@H](O)[C@H]1C(=O)N[C@@H](CC)C(=O)N(C)[C@@H](Cc2ccccc2)C(=O)N(C)[C@H](CC(C)C)C(=O)N[C@H](C(C)C)C(=O)N(C)[C@H](CC(C)C)C(=O)N[C@@H](C)C(=O)N[C@H](C)C(=O)N(C)[C@@H](CC(C)C)C(=O)N(C)[C@@H](CC(C)C)C(=O)N(C)[C@@H](C(C)C)C(=O)N1C`, the IC50 came out at 1.5 µM. Still for that read-out and setting: with `C/C=C/C[C@@H](C)[C@@H](O)[C@H]1C(=O)N[C@@H]([C@@H](C)O)C(=O)N(C)CC(=O)N(C)[C@@H](CC(C)C)C(=O)N[C@@H]([C@@H](C)CC)C(=O)N(C)[C@@H](CC(C)C)C(=O)N[C@@H](C)C(=O)N[C@](O)(C(C)C)C(=O)N(C)[C@@H](CC(C)C)C(=O)N[C@@H](CC(C)C)C(=O)N(C)[C@@H](C(C)C)C(=O)N1C` (cyclo(A[Val(2S-OH)][NMeL]L[NMeV][MeBmt]T[Sar][NMeL]I[NMeL])) the figure was 1.6 µM; with `CC(C)C[C@@H]1NC(=O)[C@H](CC(C)C)N(C)C(=O)[C@@](O)(C(C)C)NC(=O)[C@H](C)NC(=O)[C@H](CC(C)C)N(C)C(=O)[C@H](CC(C)C)NC(=O)[C@H](CC(C)C)N(C)C(=O)CN(C)C(=O)[C@H]([C@@H](C)O)NC(=O)[C@H]([C@H](O)[C@H](C)C/C=C/CO)N(C)C(=O)[C@H](C(C)C)N(C)C1=O` (cyclo(A[Val(2S-OH)][NMeL]L[NMeV][NMeBmt(8-OH)]T[Sar][NMeL]L[NMeL])), 15.8 µM.
